Experimental data: patent publication US11026965B2, “Nitric oxide-releasing cyclodextrins as biodegradable antibacterial scaffolds and methods pertaining thereto” (The University of North Carolina at Chapel Hill, priority 2018, dated 2021)
≈ marks a conversion by molar mass, not a printed value. Where two headings read alike, the source gives them in different places.

Key:
planktonic P. aeruginosa = experiment: Bactericidal assay against planktonic P. aeruginosa (4 h, static, MBC4h = 3-log reduction); type: cell-based, Pseudomonas aeruginosa; conditions: for MBC: Pseudomonas aeruginosa
Protocol: Nitric oxide may be an efficient antibacterial agent. The antibacterial activity of the NO-releasing CD derivatives was evaluated against Gram-negative P. aeruginosa, a model pathogen associated with serious medical infections (e.g., traumatic burns, cystic fibrosis). Pseudomonas aeruginosa is a Gram-negative pathogen. Bacterial viability assays were performed under static conditions. Minimum bactericidal concentrations over 4 hours exposure (MBC4h) were used to quantify their bactericidal activity, being required to eliminate bacteria viability by 3 logs (e.g., 99.9% killing). The total NO amount delivered by NO-releasing CD derivatives over this period was also calculated to quantitatively evaluate the required NO dose to achieve bactericidal activity.
The TSA bacterial stock of P. aeruginosa colony was cultured in 3 mL of TSB overnight (around 16 hours) at 37° C. A 1000 μL aliquot of the resulting suspension was added into 15 mL of fresh TSB and incubated at 37° C. for another 2 hours, to achieve a concentration of 10^8 colony forming units per mL (CFU/mL, confirmed by the OD600). The bacteria was collected by centrifugation, resuspended in sterile PBS, and diluted to 10^6 CFU/mL. The antibacterial efficacy of both non-NO-releasing and NO-releasing CD derivatives against P. aeruginosa was evaluated under static condition over 4 hours at 37° C. Blanks (untreated cells) were incubated in each experiment to ensure the bacteria remained viable at 10^6 CFU/mL over 4 hour assay. 100 μL aliquots of blank, control or NO-releasing CD derivatives treated bacteria suspensions were shifted, diluted 10-fold in sterile H2O and plated on TSA plates using an Eddy Jet spiral plater (IUL; Farmingdale, N.Y.), followed by incubation overnight at 37° C. Bacterial viability was evaluated via total colony count on the TSA plates by using a Flash & Go colony counter (IUL; Farmingdale, N.Y.). […] Of note, the limit of detection for this selected plate counting method is 2.5×10^3 CFU/mL.
Additional testing was done to determine the antibacterial efficacy and toxicity of DETA, DETA/NO (DETA functionalized with NO), and DETA/NO mixed with CD (at ratios of 1:1 or 1:2) as compared to CD-DETA or CD-DETA/NO (CD-DETA functionalized with NO). The same conditions as disclosed above for antibacterial testing and cytotoxicity was used.

L929 mouse fibroblasts = experiment: In-vitro cytotoxicity, L929 mouse fibroblasts, MTS, 4 h exposure; type: cell-based
Protocol: L929 mouse fibroblasts were cultured in DMEM supplemented with 10% v/v fetal bovine serum (FBS) and 1 wt % penicillin/streptomycin, and incubated in 5% v/v CO2 under humidified conditions at 37° C. After reaching confluency (80%), the cells were trypsinized, seeded onto tissue-culture treated polystyrene 96-well plates at a density of 1×10^4 cells/mL, and incubated at 37° C. for 24 hours. The supernatant was then aspirated and replaced with 100 μL of fresh growth medium containing various concentrations of both unmodified control and NO-releasing CD derivatives to each well. After incubation at 37° C. for 4 hours, the supernatant was aspirated and 100 μL of a mixture of DMEM/MTS/PMS (105/20/1, v/v/v) was added to each well. The absorbance of the resulting colored solutions over 3 hours incubation was quantified by using a ThermoScientific Multiskan EX plate reader (Waltham, Mass.) at 490 nm. The mixture of DMEM/MTS/PMS and untreated cells were used as a blank and control, respectively. Cell viability was calculated according to the following formula: […]
Despite effective bactericidal capability, the applicability of new antibacterial agents is also determined by their toxicity to mammalian cells. With respect to therapeutic potential, toxicity to mammalian cells is an important factor in the development of any new antibacterial agent. The cytotoxicity of CD-NONOates was evaluated by exposing mouse fibroblast cells to various concentrations (0˜2000 μg/mL) of both control and NO-releasing CD derivatives over a 4 hour exposure. […] Both CD-PA7/NO and CD-MA7/NO were tolerable to the mouse fibroblasts even at 2000 μg/mL (63% and 73% cell viability for CD-PA7/NO and CD-MA7/NO, respectively). […] The behavior is in part related to the effective delivery of NO induced by the fast cellular uptake of positively charged macromolecular systems. This behavior was also ascribed to the large amounts of terminal primary amines groups.

[1] = NO-release properties of NO-releasing cyclodextrins at pH 5.4 and pH 7.4 (Table 5); type: physicochemical
Protocol: Additional studies were carried out to investigate NO-release properties from β-cyclodextrin under conditions consistent with healthy tissue (pH 7.4) and those of tumor microenvironments (pH 5.4). These studies also evaluated the role of NO-release properties on anticancer action using A549 lung cancer cells with two modifications to vary release kinetics (mono- and hepta-substitution to vary NO totals). This study also evaluated the efficacy of a combined therapeutic (a nitric oxide releasing CD with DOX) as compared to each therapeutic agent individually. […] Several different functionalized CDs were prepared as shown in Table 5 and using techniques as described elsewhere herein. […] All modifications (PA, DETA, and DETA7) except for PA7 have t1/2 under 10 min.

[2] = system: A549 human lung carcinoma cells; experiment: Anticancer action against A549 cells, 24 h MTS assay; type: cell-based; conditions: A549, 24 h MTS; error = 95% confidence interval for IC50
Protocol: Anticancer potential was evaluated against A549 human lung carcinoma cells using an MTS assay. […] All cell work performed in RPMI media and materials corrected for pH using 0.1 M HCl. […]

[3] = 4 h exposure, 3-log reduction in viability

[NO]max ([1]; pH 5.4) [ppb mg^−1]	[NO]t ([1]; pH 5.4) [µmol/mg]	td ([1]; pH 5.4) [h]	[NO]max ([1]; pH 7.4) [ppb mg^−1]	[NO]t ([1]; pH 7.4) [µmol/mg]	td ([1]; pH 7.4) [h]	Structure (SMILES)	MBC4 h (planktonic P. aeruginosa; [3]) [µg/mL]	NO dose [2] [µmol/mL]	also measured
32000 ± 2500	0.74 ± 0.04	14.6 ± 0.8	900 ± 100	0.68 ± 0.03	20.2 ± 0.6	NCCNCCNCC1OC2OC3C(CO)OC(OC4C(CO)OC(OC5C(CO)OC(OC6C(CO)OC(OC7C(CO)OC(OC8C(CO)OC(OC1C(O)C2O)C(O)C8O)C(O)C7O)C(O)C6O)C(O)C5O)C(O)C4O)C(O)C3O (stereo not drawn) [CD-DETA]	8000	1.07 ± 0.06	MBC4 h (planktonic P. aeruginosa; 4 h exposure): 8000 µg/mL; L929 viability (L929 mouse fibroblasts; up to 2 mg/mL): > 60%
25100 ± 5700	0.56 ± 0.09	5.0 ± 0.8	2100 ± 300	0.60 ± 0.07	17.0 ± 1.0	CCCNCC1OC2OC3C(CO)OC(OC4C(CO)OC(OC5C(CO)OC(OC6C(CO)OC(OC7C(CO)OC(OC8C(CO)OC(OC1C(O)C2O)C(O)C8O)C(O)C7O)C(O)C6O)C(O)C5O)C(O)C4O)C(O)C3O (stereo not drawn) [CD-PA]		0.97 ± 0.16	
						NCCNCCN [DETA, diethylenetriamine]			bactericidal efficacy (in words) (planktonic P. aeruginosa; 4 h incubation): highly antimicrobial; MBC (planktonic P. aeruginosa; 4 h exposure, 3-log reduction in viability, read-out: MBC4 h): 250 µg/mL (≈ 2420 µM); concentration at which toxic (L929 mouse fibroblasts; FIG. 21e): 4000 µg/mL
						NCCN(CCN)/[N+]([O-])=N/O [DETA/NO]	1000		
						CC(CN1c2ccccc2Sc2ccccc21)N(C)C (stereo not drawn) [PM, promethazine]			MBC (planktonic P. aeruginosa; concentration of PM, PM and CD derivative 1:1 molar, read-out: PM MBC4 h): 100 µg/mL (≈ 352 µM); MBC4h for PM (planktonic P. aeruginosa; concentration of PM): 100 µg/mL; cytotoxicity at MBC4h concentration (in words) (L929 mouse fibroblasts): toxic to the vast majority of the mouse fibroblast cells
